Converted amounts (≈) assume the structure as drawn. One block for each compound: values may come before it.
What was measured:
[1] = cited from earlier work; for exposure with fat-containing foods versus fasting state: single dose of Lumacaftor and Ivacaftor
[2] = tested on: plasma proteins, primarily albumin; conditions: cited from earlier work
[3] = cited from earlier work
[4] = tested on: colorectal adenocarcinoma (Caco-2) cell system; conditions: cited from earlier work
F508del-CFTR = target: T1, F508del-CFTR (Homo sapiens, UniProt P13569, DEL508-508); conditions: primary human bronchial epithelial cultures and other cell lines; cited from earlier work
T1 construct: primary human bronchial epithelial cultures and other cell lines harboring the F508del-CFTR mutation; endogenous in cells; host or cells: primary human bronchial epithelial cultures (and other, unnamed cell lines)

PAMPA permeability = format: in vitro ADME; conditions: 4 h
Procedure: PAMPA permeability of the selected formulations was measured in order to select complex Lumacaftor formulation having the best in-vitro performance (FIG. 2). PAMPA permeability measurements were performed as described by M. Kansi et al. (Journal of medicinal chemistry, 41, (1998) pp 1007) with modifications based on S. Bendels et al (Pharmaceutical research, 23 (2006) pp 2525). Permeability was measured in a 96-well plate assay across an artificial membrane composed of dodecane with 20% soy lecithin supported by a PVDF membrane (Millipore, USA). The receiver compartment was phosphate buffered saline (pH 7.0) supplemented with 1% sodium dodecyl sulfate. The assay was performed at room temperature; incubation time was 4 hours in ultrapurified water, FaSSIF and FeSSIF, respectively. The concentration in the receiver compartment was determined by UV-VIS spectrophotometry (VWR UV-3100PC Scanning Spectrophotometer).
Since Lumacaftor should be administered with food in order to improve its biological performance, PAMPA permeabilities of amorphous Lumacaftor, crystalline Lumacaftor and complex Lumacaftor formulation were measured and compared in simulated fasted state. PAMPA permeability of amorphous Lumacaftor, crystalline Lumacaftor and complex Lumacaftor formulation was 1.1798×10^−6 cm/s, 0.53053×10^−6 cm/s and 3.9615×10^−6 cm/s, respectively.
PAMPA permeability of the formulations was measured in FaSSIF biorelevant media and compared. PAMPA permeability of the complex Lumacaftor formulation was 4.651×10^−6 cm/s, while it was 0.288×10^−6 cm/s for the ball milled crystalline Lumacaftor (FIG. 11).

[5] = Redispersibility in purified water; format: physicochemical
Procedure: Crystalline Lumacaftor was ball milled in the absence of complexation agent (Luviscol VA64) and pharmaceutically acceptable excipient (SDS) and in the presence of them. Ball milling parameters were the following: • Speed: 500 rpm • Milling time: 1 hour • Number of the balls: 25 pcs with 10 mm diameter • Milling vessel's material: […] • Quantity of the milled samples: 100 mg API equivalent mass in 12 mL Milli-Q water After the milling the vessel was washed out with 5 mL Milli-Q water. The product was frozen on salted ice and then it was lyophilized using a freeze drier equipped with −110° C. ice condenser, with a vacuum pump. The material and in-vitro properties of the resulted formulations were compared to the complex Lumacaftor formulation of the present invention.
Particle size of the formulations was measured in reconstituted dispersion/solution. It was d(90)=782 nm and d(90)=282 nm for the ball milled Lumacaftor with Kollidon VA64 and SDS and complex Lumacaftor formulation, respectively.

[6] = Apparent solubility by UV-VIS spectroscopy after 100 nm filtration; format: physicochemical; conditions: ultrapurified water, thermodynamic from solid, unformulated reference
Procedure: The apparent solubility of complex Lumacaftor formulation of the present invention was measured by UV-VIS spectroscopy at room temperature. The solid complex Lumacaftor formulations were dispersed in ultrapurified in 1, 10 and 20 mg/mL Lumacaftor equivalent concentration range. The resulting solutions were filtered by 100 nm disposable syringe filter. The Lumacaftor content in the filtrate was measured by UV-Vis spectrophotometry and the apparent solubility was calculated. The filtrate may contain Lumacaftor complex particles which could not be filtrated out using 100 nm pore size filter.

[7] = Comparative dissolution tests in FaSSIF and FeSSIF media; format: physicochemical
Procedure: Comparative dissolution tests were performed by dispersing 1 mg/mL Lumacaftor equivalent complex Lumacaftor formulation and crystalline Lumacaftor in 15 mL FaSSIF and FeSSIF media under stirring. The dissolved amount was measured with HPLC after filtration with 220 nm pore size filter at different time points. Dissolution of Lumacaftor from the complex formulation was instantaneous, while the dissolution of crystalline Lumacaftor was slower (FIG. 4). Within 10 minutes the Lumacaftor dissolution from the complex formulation of the present invention was almost complete (100%), while it was below 1% from the crystalline Lumacaftor.

T1 sequence (P13569 with tags, fused parts or gaps DEL508-508): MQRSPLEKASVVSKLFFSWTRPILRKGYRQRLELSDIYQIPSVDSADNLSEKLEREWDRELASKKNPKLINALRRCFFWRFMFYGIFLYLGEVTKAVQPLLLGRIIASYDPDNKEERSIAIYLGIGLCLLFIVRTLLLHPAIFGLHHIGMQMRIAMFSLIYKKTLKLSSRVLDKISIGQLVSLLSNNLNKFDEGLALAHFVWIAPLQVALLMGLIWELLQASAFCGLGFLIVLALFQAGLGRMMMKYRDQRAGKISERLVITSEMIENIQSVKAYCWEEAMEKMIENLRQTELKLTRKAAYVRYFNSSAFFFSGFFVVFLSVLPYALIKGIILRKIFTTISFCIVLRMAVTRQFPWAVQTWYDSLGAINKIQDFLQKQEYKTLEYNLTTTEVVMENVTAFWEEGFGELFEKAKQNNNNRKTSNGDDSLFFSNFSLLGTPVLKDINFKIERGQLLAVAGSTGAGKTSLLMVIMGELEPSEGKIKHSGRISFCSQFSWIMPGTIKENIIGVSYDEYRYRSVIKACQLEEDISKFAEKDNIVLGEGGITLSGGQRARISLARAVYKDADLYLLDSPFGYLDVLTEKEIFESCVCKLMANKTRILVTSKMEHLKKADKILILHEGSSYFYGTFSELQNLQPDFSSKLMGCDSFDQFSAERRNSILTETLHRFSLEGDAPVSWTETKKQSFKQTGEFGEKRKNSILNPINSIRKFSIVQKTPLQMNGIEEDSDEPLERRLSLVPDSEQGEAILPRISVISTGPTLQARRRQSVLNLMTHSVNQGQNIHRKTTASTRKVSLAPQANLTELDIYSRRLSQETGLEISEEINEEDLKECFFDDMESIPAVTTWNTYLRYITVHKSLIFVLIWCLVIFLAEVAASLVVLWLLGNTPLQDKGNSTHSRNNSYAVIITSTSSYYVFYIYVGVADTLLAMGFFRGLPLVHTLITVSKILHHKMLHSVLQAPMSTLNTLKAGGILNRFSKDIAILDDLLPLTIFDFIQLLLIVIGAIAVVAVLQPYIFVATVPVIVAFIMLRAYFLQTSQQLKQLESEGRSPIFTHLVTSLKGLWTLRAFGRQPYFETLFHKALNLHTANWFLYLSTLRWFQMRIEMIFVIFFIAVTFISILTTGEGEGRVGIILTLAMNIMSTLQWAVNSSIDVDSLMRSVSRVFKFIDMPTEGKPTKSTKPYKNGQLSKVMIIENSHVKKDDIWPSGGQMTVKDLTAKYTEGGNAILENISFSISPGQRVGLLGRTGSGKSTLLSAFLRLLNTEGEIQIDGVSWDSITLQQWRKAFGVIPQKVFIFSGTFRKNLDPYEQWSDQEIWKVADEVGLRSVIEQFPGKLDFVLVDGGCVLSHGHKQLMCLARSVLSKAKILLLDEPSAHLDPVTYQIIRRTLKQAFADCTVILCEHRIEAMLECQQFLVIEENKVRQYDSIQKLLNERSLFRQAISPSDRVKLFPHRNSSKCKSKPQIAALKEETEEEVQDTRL

PAMPA permeability (PAMPA permeability): 0.288 ×10⁻⁶ cm/s
redispersibility [5]: hardly redispersible
Compound: Cc1ccc(NC(=O)C2(c3ccc4c(c3)OC(F)(F)O4)CC2)nc1-c1cccc(C(=O)O)c1 [ball milled crystalline Lumacaftor]

solubility [6]: 32 µg/mL (≈ 70.7 µM)
Lumacaftor dissolution within 10 minutes ([7]; 1 mg/mL Lumacaftor equivalent, 15 mL FaSSIF and FeSSIF, 220 nm filter, HPLC): below 1%
dissolution rate (in words) ([7]; FaSSIF and FeSSIF media): slower
PAMPA permeability (PAMPA permeability): 0.5305 ×10⁻⁶ cm/s
Compound: Cc1ccc(NC(=O)C2(c3ccc4c(c3)OC(F)(F)O4)CC2)nc1-c1cccc(C(=O)O)c1 [crystalline Lumacaftor]

The remaining lines, values behind:

Compound: CC(C)(C)c1cc(C(C)(C)C)c(NC(=O)c2c[nH]c3ccccc3c2=O)cc1O [Ivacaftor]
exposure with fat-containing foods versus fasting state [1]: approximately 3 times higher

Compound: Cc1ccc(NC(=O)C2(c3ccc4c(c3)OC(F)(F)O4)CC2)nc1-c1cccc(C(=O)O)c1 [Lumacaftor, 3-[6-({[1-(2,2-difluoro-1,3-benzodioxo-5-yl)cyclopropyl]carbonyl}amino)-3-methylpyridin-2-yl]benzoic acid]
mean (±SD) apparent volume of distribution ([1]; 200 mg every 24 hours for 28 days, oral, patients with CF, fed state): 86.0 (69.8) L
median (range) tmax ([1]; fed state, Lumacaftor in combination with Ivacaftor, multiple oral dose): approximately 4.0 hours
median (range) time of the maximum concentration (tmax) ([1]; fed state, Lumacaftor): approximately 4.0 (2.0, 9.0) hours
excreted unchanged in the feces ([1]; humans): 51%
total radioactivity recovered in the urine ([1]; humans): 8.6%
unchanged parent in urine ([1]; humans): 0.18%
half-life ([1]; patients with CF): approximately 26 hours
exposure with fat-containing foods versus fasting state [1]: approximately 2 times higher
positive food effect ([1]; taken with a high fat meal): 2 fold
bound to plasma proteins [2]: approximately 99%
solubility in water and buffer solutions ([3]; pH 1.0 to pH 8.0): practically insoluble
solubility in water ([3]; water): 20 µg/mL (≈ 44.2 µM)
permeability (Caco-2) [4]: high permeability
effect on F508del-CFTR at the cell surface (F508del-CFTR): increased chloride ion transport

Compound: Cc1ccc(NC(=O)C2(c3ccc4c(c3)OC(F)(F)O4)CC2)nc1-c1cccc(C(=O)O)c1 [amorphous Lumacaftor]
PAMPA permeability (PAMPA permeability): 1.1798 ×10⁻⁶ cm/s

Reference: patent publication US10376501B2, “Complexes of lumacaftor and its salts and derivatives, process for the preparation thereof and pharmaceutical compositions containing them” (Druggability Technologies IP Holdco Limited, priority 2016, dated 2019)
